Test results published in PubChem BioAssay (NCI).
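Five compound concentrations were applied to cells in 96-well plates for 48 hours; endpoints were derived by simple linear interpolation of the resulting dose-response curve. TGI denotes the concentration required for complete inhibition of growth.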

Experiments:
Test in all cases: NCI tumour cell line growth inhibition, 48 h
SF-539 CNS = test system: SF-539 CNS
EKVX NSCLC = test system: EKVX NSCLC
DLD-1 colon = test system: DLD-1 colon
OVCAR-5 ovarian = test system: OVCAR-5 ovarian
U251 CNS = test system: U251 CNS
OVCAR-8 ovarian = test system: OVCAR-8 ovarian
XF 498 CNS = test system: XF 498 CNS
NCI-H460 lung = test system: NCI-H460 lung
KM20L2 colon = test system: KM20L2 colon
RXF 393 renal = test system: RXF 393 renal
SK-MEL-5 melanoma = test system: SK-MEL-5 melanoma
K-562 leukemia = test system: K-562 leukemia
NCI-H522 lung = test system: NCI-H522 lung
OVCAR-4 ovarian = test system: OVCAR-4 ovarian
OVCAR-3 ovarian = test system: OVCAR-3 ovarian
RPMI-8226 leukemia = test system: RPMI-8226 leukemia
HCT-116 colon = test system: HCT-116 colon
UACC-62 melanoma = test system: UACC-62 melanoma
LOX IMVI melanoma = test system: LOX IMVI melanoma
HOP-62 NSCLC = test system: HOP-62 NSCLC
SW-620 colon = test system: SW-620 colon
DMS 114 small cell lung = test system: DMS 114 small cell lung
CCRF-CEM leukemia = test system: CCRF-CEM leukemia
NCI/ADR-RES ovarian = test system: NCI/ADR-RES ovarian
P388 leukemia = test system: P388 leukemia
SN12K1 renal = test system: SN12K1 renal
DMS 273 small cell lung = test system: DMS 273 small cell lung
KM12 colon = test system: KM12 colon
MCF7 breast = test system: MCF7 breast
A549 NSCLC = test system: A549 NSCLC
SNB-75 CNS = test system: SNB-75 CNS
HL-60(TB) leukemia = test system: HL-60(TB) leukemia
SF-268 CNS = test system: SF-268 CNS
IGROV1 ovarian = test system: IGROV1 ovarian
NCI-H226 lung = test system: NCI-H226 lung
SN12C renal = test system: SN12C renal
MOLT-4 leukemia = test system: MOLT-4 leukemia
MALME-3M melanoma = test system: MALME-3M melanoma
P388/ADR leukemia = test system: P388/ADR leukemia
M19-MEL melanoma = test system: M19-MEL melanoma
UO-31 renal = test system: UO-31 renal
HOP-92 NSCLC = test system: HOP-92 NSCLC
COLO 205 colon = test system: COLO 205 colon
SNB-19 CNS = test system: SNB-19 CNS
NCI-H23 lung = test system: NCI-H23 lung
SNB-78 CNS = test system: SNB-78 CNS
HOP-18 NSCLC = test system: HOP-18 NSCLC
SK-MEL-28 melanoma = test system: SK-MEL-28 melanoma
HCC-2998 colon = test system: HCC-2998 colon
A498 renal = test system: A498 renal
SK-MEL-2 melanoma = test system: SK-MEL-2 melanoma
HCT-15 colon = test system: HCT-15 colon
HT29 colon = test system: HT29 colon
UACC-257 melanoma = test system: UACC-257 melanoma
SF-295 CNS = test system: SF-295 CNS
SK-OV-3 ovarian = test system: SK-OV-3 ovarian
CAKI-1 renal = test system: CAKI-1 renal

With COC(=O)C(C/C=C(\C)c1ccccc1)C(C)=O (configuration not stated) the TGI (SF-539 CNS) was > 100000 nM, the TGI (EKVX NSCLC) was > 100000 nM and the TGI (DLD-1 colon) was > 100000 nM. The TGI (OVCAR-5 ovarian) was > 100000 nM, the TGI (U251 CNS) was > 100000 nM and the TGI (OVCAR-8 ovarian) was > 100000 nM. For the same molecule, the TGI (XF 498 CNS) was > 100000 nM, the TGI (NCI-H460 lung) was > 100000 nM and the TGI (KM20L2 colon) was > 100000 nM. For the same molecule, the TGI (RXF 393 renal) was > 100000 nM, the TGI (SK-MEL-5 melanoma) was > 100000 nM and the TGI (K-562 leukemia) was > 100000 nM. The TGI (NCI-H522 lung) was > 100000 nM, the TGI (OVCAR-4 ovarian) was > 100000 nM and the TGI (OVCAR-3 ovarian) was > 100000 nM. The TGI (RPMI-8226 leukemia) was > 100000 nM, the TGI (HCT-116 colon) was > 100000 nM and the TGI (UACC-62 melanoma) was > 100000 nM. For the same molecule, the TGI (LOX IMVI melanoma) was > 100000 nM, the TGI (HOP-62 NSCLC) was > 100000 nM and the TGI (SW-620 colon) was > 100000 nM. For the same molecule, the TGI (DMS 114 small cell lung) was > 95900 nM, the TGI (CCRF-CEM leukemia) was > 100000 nM and the TGI (NCI/ADR-RES ovarian) was > 100000 nM. The TGI (P388 leukemia) was > 82100 nM, the TGI (SN12K1 renal) was > 82800 nM and the TGI (DMS 273 small cell lung) was > 100000 nM. For the same molecule, the TGI (KM12 colon) was > 100000 nM, the TGI (MCF7 breast) was > 100000 nM and the TGI (A549 NSCLC) was > 100000 nM. For the same molecule, the TGI (SNB-75 CNS) was > 100000 nM, the TGI (HL-60(TB) leukemia) was 53600 nM and the TGI (SF-268 CNS) was > 100000 nM. For the same molecule, the TGI (IGROV1 ovarian) was > 100000 nM, the TGI (NCI-H226 lung) was > 100000 nM and the TGI (SN12C renal) was > 100000 nM. For the same molecule, the TGI (MOLT-4 leukemia) was 51600 nM, the TGI (MALME-3M melanoma) was > 100000 nM and the TGI (P388/ADR leukemia) was > 100000 nM. For the same molecule, the TGI (M19-MEL melanoma) was > 100000 nM, the TGI (UO-31 renal) was > 100000 nM and the TGI (HOP-92 NSCLC) was 98300 nM. For the same molecule, the TGI (COLO 205 colon) was > 100000 nM, the TGI (SNB-19 CNS) was > 100000 nM and the TGI (NCI-H23 lung) was > 100000 nM. For the same molecule, the TGI (SNB-78 CNS) was > 100000 nM, the TGI (HOP-18 NSCLC) was > 100000 nM and the TGI (SK-MEL-28 melanoma) was > 100000 nM. The TGI (HCC-2998 colon) was > 100000 nM, the TGI (A498 renal) was > 100000 nM and the TGI (SK-MEL-2 melanoma) was > 100000 nM. The TGI (HCT-15 colon) was > 100000 nM, the TGI (HT29 colon) was > 100000 nM and the TGI (UACC-257 melanoma) was > 87400 nM. The TGI (SF-295 CNS) was > 100000 nM and the TGI (SK-OV-3 ovarian) was > 100000 nM.

In the case of Cn1c(/C=C/CO)c(CO)c2c1C(=O)C=C(N1CC1)C2=O, the TGI (SF-539 CNS) is reported as < 16.3 nM, the TGI (EKVX NSCLC) is reported as 178 nM and the TGI (DLD-1 colon) is reported as 662 nM. The TGI (OVCAR-5 ovarian) was < 27.3 nM, the TGI (U251 CNS) was 10.1 nM and the TGI (OVCAR-8 ovarian) was 93.6 nM. For the same molecule, the TGI (XF 498 CNS) was 17.1 nM, the TGI (NCI-H460 lung) was < 10 nM and the TGI (KM20L2 colon) was 63.9 nM. The TGI (RXF 393 renal) was 11.2 nM, the TGI (SK-MEL-5 melanoma) was < 15 nM and the TGI (K-562 leukemia) was 378 nM. The TGI (NCI-H522 lung) was < 18 nM, the TGI (OVCAR-4 ovarian) was 223 nM and the TGI (OVCAR-3 ovarian) was 56.1 nM. The TGI (RPMI-8226 leukemia) was 80.5 nM, the TGI (HCT-116 colon) was 1020 nM and the TGI (UACC-62 melanoma) was < 11.5 nM. The TGI (LOX IMVI melanoma) was 10.2 nM, the TGI (HOP-62 NSCLC) was < 13.9 nM and the TGI (SW-620 colon) was 104 nM. It also gave a TGI (DMS 114 small cell lung) of 15.3 nM, a TGI (CCRF-CEM leukemia) of 23900 nM and a TGI (NCI/ADR-RES ovarian) of 34.6 nM. The TGI (P388 leukemia) was 4900 nM, the TGI (CAKI-1 renal) was 58.8 nM and the TGI (SN12K1 renal) was 22.4 nM. For the same molecule, the TGI (DMS 273 small cell lung) was < 10.7 nM, the TGI (KM12 colon) was 17.2 nM and the TGI (MCF7 breast) was 15.6 nM. For the same molecule, the TGI (A549 NSCLC) was < 10 nM, the TGI (SNB-75 CNS) was < 12.4 nM and the TGI (HL-60(TB) leukemia) was 682 nM. The TGI (SF-268 CNS) was 37.9 nM, the TGI (IGROV1 ovarian) was 197 nM and the TGI (NCI-H226 lung) was 60.2 nM. For the same molecule, the TGI (SN12C renal) was 25.3 nM, the TGI (MOLT-4 leukemia) was 4150 nM and the TGI (MALME-3M melanoma) was 24 nM. The TGI (P388/ADR leukemia) was 3910 nM, the TGI (M19-MEL melanoma) was < 11 nM and the TGI (UO-31 renal) was < 10 nM. The TGI (HOP-92 NSCLC) was 488 nM, the TGI (COLO 205 colon) was 23.6 nM and the TGI (SNB-19 CNS) was 36.9 nM. The TGI (SNB-78 CNS) was 7210 nM, the TGI (HOP-18 NSCLC) was < 10 nM and the TGI (SK-MEL-28 melanoma) was 202 nM. For the same molecule, the TGI (HCC-2998 colon) was 20.3 nM, the TGI (A498 renal) was 23.5 nM and the TGI (SK-MEL-2 melanoma) was < 10 nM. The TGI (HCT-15 colon) was < 15.9 nM, the TGI (HT29 colon) was 53.4 nM and the TGI (UACC-257 melanoma) was 18 nM. The TGI (SF-295 CNS) was < 10 nM and the TGI (SK-OV-3 ovarian) was 85.5 nM.
